Results as given in ChEMBL document CHEMBL1131991, “Discovery of CP-199,330 and CP-199,331: two potent and orally efficacious cysteinyl LT1 receptor antagonists devoid of liver toxicity” (Bioorg Med Chem Lett, 1999).

Key:
[1] = tested on: Cavia porcellus; assay: Compound was evaluated in vivo for antigen induced airway obstruction in guinea pig (OA) at 1.0 hour after oral administration; type: functional
[2] = organism: Rattus norvegicus; assay: Compound was evaluated for Hepatic clearance in rat; type: ADME, organism-based, Liver; conditions: in vivo
[3] = Oral bioavailability in monkey; type: ADME, organism-based; conditions: cercopithecidae, in vivo
[4] = Compound was evaluated for terminal half life in rat; type: ADME, organism-based; conditions: in vivo
[5] = tested on: Cavia porcellus; assay: Compound was evaluated in vivo for cysLT1 receptor induced airway obstruction in guinea pig (OA) at 1.0 hour after oral administration; type: functional
[6] = Compound was evaluated for Hepatic clearance in monkey; type: ADME, organism-based, Liver; conditions: cercopithecidae, in vivo
[7] = Compound was evaluated for terminal half life in monkey; type: ADME; conditions: cercopithecidae, in vivo
[8] = tested on: U-937; assay: In vitro blocking of extracellular calcium mobilization in human U937 cells; type: functional, cell-based
[9] = Oral bioavailability in rat; type: ADME, organism-based; conditions: in vivo
[10] = target: T1, Cysteinyl leukotriene receptor 1 (Cavia porcellus, UniProt Q2NNR5); assay: In vitro binding of Cysteinyl leukotriene receptor 1 to guinea pig lung membranes; type: tissue-based, Membrane
T1 sequence (Q2NNR5 whole entry): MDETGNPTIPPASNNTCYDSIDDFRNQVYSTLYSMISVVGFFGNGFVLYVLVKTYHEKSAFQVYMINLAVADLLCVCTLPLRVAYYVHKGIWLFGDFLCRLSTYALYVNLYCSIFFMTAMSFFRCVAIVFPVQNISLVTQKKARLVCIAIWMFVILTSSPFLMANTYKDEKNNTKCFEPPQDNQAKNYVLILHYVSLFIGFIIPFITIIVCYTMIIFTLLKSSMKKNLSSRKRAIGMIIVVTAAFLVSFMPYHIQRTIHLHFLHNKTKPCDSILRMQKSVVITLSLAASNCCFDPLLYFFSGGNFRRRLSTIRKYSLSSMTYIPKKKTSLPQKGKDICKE

[11] = tested on: Cavia porcellus; assay: Compound was evaluated in vivo for cysLT1 receptor induced airway obstruction in guinea pig (OA) at 1.0 hour after oral administration.; type: functional
[12] = tested on: Cavia porcellus; assay: Compound was evaluated in vivo for antigen induced airway obstruction in guinea pig (OA) at 2.0 hour after oral administration.; type: functional
[13] = tested on: Cavia porcellus; assay: Compound was evaluated in vivo for cysLT1 receptor induced airway obstruction in guinea pig (OA) at 2.0 hour after oral administration.; type: functional

Clp [2] [mL/min/kg] | bioavailability [3] [%] | half-life [4] [min] | Clp [6] [mL/min/kg] | half-life [7] [min] | IC50 [8] [nM] | bioavailability [9] [%] | Ki [10] [nM] | SMILES | ED50 [1] [mg/kg] | ED50 [5] [mg/kg] | ED50 [11] [mg/kg] | ED50 [12] [mg/kg] | ED50 [13] [mg/kg]
 |  |  |  |  |  |  |  | O=C(Nc1cccc2c(=O)cc(-c3nnn[nH]3)oc12)c1ccc(OCCCCc2ccccc2)cc1 | 1.5 |  |  |  | 
8.9 | 100 | 48 | 6.5 | 126 | 0.7 | 53 | 0.6 | COc1ccc(NS(=O)(=O)C(F)(F)F)cc1C[C@@H]1COc2ccc(OCc3ccc4ccc(Cl)cc4n3)cc2[C@@H]1O | 0.46 | 0.12 |  |  | 
8.3 | 72 | 528 | 4.2 | 564 | 0.3 | 46 | 0.4 | COc1ccc(NS(=O)(=O)C(F)(F)F)cc1C[C@@H]1COc2ccc(OCc3nc4cc(F)c(F)cc4s3)cc2[C@@H]1O | 0.52 |  | 0.08 |  | 
 |  |  |  |  |  |  |  | COc1cc(C(=O)NS(=O)(=O)c2ccccc2C)ccc1Cc1cn(C)c2ccc(NC(=O)OC3CCCC3)cc12 [ZAFIRLUKAST] |  |  |  | 0.9 | 0.52
